Measurements as given in ChEMBL document CHEMBL1201862, “PubChem BioAssay data set” (2004).
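Growth conditions: 96-well plates. Treatment: test compound, 48 hours, 5 concentrations. Analysis: linear interpolation between bracketing concentrations; unreached endpoints set to highest concentration. Abbreviation: GI50, concentration required for 50% inhibition of growth.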 The source made the active and inactive calls. No stated cut-off is given here; in the data, active = GI50 up to about 1.1 µM and inactive = higher.

Legend:
Assay in all cases: DTP human tumour cell line panel, 48 h
CAKI-1 = test system: CAKI-1
IGROV-1 = test system: IGROV-1
UACC-62 = test system: UACC-62
COLO 205 = test system: COLO 205
SK-MEL-2 = test system: SK-MEL-2
RXF 631 = test system: RXF 631
SF-295 = test system: SF-295
K562 = test system: K562
HCC 2998 = test system: HCC 2998
SK-MEL-28 = test system: SK-MEL-28
HOP-92 = test system: HOP-92
OVCAR-8 = test system: OVCAR-8
M14 = test system: M14
HT-29 = test system: HT-29
NCI-H23 = test system: NCI-H23
KM-20L2 = test system: KM-20L2
SNB-78 = test system: SNB-78
OVCAR-5 = test system: OVCAR-5
Malme-3M = test system: Malme-3M
SK-MEL-5 = test system: SK-MEL-5
OVCAR-4 = test system: OVCAR-4
OVCAR-3 = test system: OVCAR-3
XF498 = test system: XF498
SR = test system: SR
CCRF-CEM = test system: CCRF-CEM
U-251 = test system: U-251
SK-OV-3 = test system: SK-OV-3
RXF 393 = test system: RXF 393
KM12 = test system: KM12
MOLT-4 = test system: MOLT-4
M19-MEL = test system: M19-MEL
HCT-15 = test system: HCT-15
LXFL 529 = test system: LXFL 529
NCI-H522 = test system: NCI-H522
UO-31 = test system: UO-31
DLD-1 = test system: DLD-1
SN12C = test system: SN12C
SNB-19 = test system: SNB-19
SW-620 = test system: SW-620
TK-10 = test system: TK-10
DMS-273 = test system: DMS-273
786-0 = test system: 786-0
NCI-H460 = test system: NCI-H460
HL-60 = test system: HL-60
SF-268 = test system: SF-268
A498 = test system: A498
DMS-114 = test system: DMS-114
RPMI-8226 = test system: RPMI-8226
SNB-75 = test system: SNB-75
HCT-116 = test system: HCT-116
HOP-62 = test system: HOP-62
NCI-H226 = test system: NCI-H226
SF-539 = test system: SF-539

In the case of `O=C(N/C(=C\c1ccccc1[N+](=O)[O-])c1nc2ccccc2[nH]1)c1ccccc1`, the GI50 (CAKI-1) is reported as > 100 µM (inactive), the GI50 (IGROV-1) is reported as > 100 µM (inactive) and the GI50 (UACC-62) is reported as 62.4 µM (inactive). The GI50 (COLO 205) was > 100 µM (inactive), the GI50 (SK-MEL-2) was > 100 µM (inactive) and the GI50 (RXF 631) was > 100 µM (inactive). The GI50 (SF-295) was 55.8 µM (inactive), the GI50 (K562) was 43.9 µM (inactive) and the GI50 (HCC 2998) was > 100 µM (inactive). The GI50 (SK-MEL-28) was > 100 µM (inactive), the GI50 (HOP-92) was 40.1 µM (inactive) and the GI50 (OVCAR-8) was 71.3 µM (inactive). The GI50 (M14) was > 100 µM (inactive), the GI50 (HT-29) was > 100 µM (inactive) and the GI50 (NCI-H23) was > 100 µM (inactive). For the same compound, the GI50 (KM-20L2) was > 100 µM (inactive), the GI50 (SNB-78) was 92.7 µM (inactive) and the GI50 (OVCAR-5) was > 100 µM (inactive). For the same compound, the GI50 (Malme-3M) was > 100 µM (inactive), the GI50 (SK-MEL-5) was 72.8 µM (inactive) and the GI50 (OVCAR-4) was > 100 µM (inactive). For the same compound, the GI50 (OVCAR-3) was 68.1 µM (inactive), the GI50 (XF498) was > 100 µM (inactive) and the GI50 (SR) was 37.6 µM (inactive). For the same compound, the GI50 (CCRF-CEM) was 57.9 µM (inactive), the GI50 (U-251) was > 100 µM (inactive) and the GI50 (SK-OV-3) was > 100 µM (inactive). For the same compound, the GI50 (RXF 393) was 56.1 µM (inactive), the GI50 (KM12) was > 100 µM (inactive) and the GI50 (MOLT-4) was 35.1 µM (inactive). For the same compound, the GI50 (M19-MEL) was > 100 µM (inactive), the GI50 (HCT-15) was 88.9 µM and the GI50 (LXFL 529) was 59.4 µM (inactive). For the same compound, the GI50 (NCI-H522) was 56.8 µM (inactive), the GI50 (UO-31) was 45.8 µM (inactive) and the GI50 (DLD-1) was 93.5 µM (inactive). The GI50 (SN12C) was > 100 µM (inactive), the GI50 (SNB-19) was > 100 µM (inactive) and the GI50 (SW-620) was 58.5 µM (inactive). The GI50 (TK-10) was > 100 µM (inactive) and the GI50 (DMS-273) was > 100 µM (inactive).
With `CCN(CC)C1CC(n2cc(C)c(=O)[nH]c2=O)OC1CO` (stereo not given) the GI50 (786-0) was > 100 µM (inactive), the GI50 (NCI-H460) was > 100 µM (inactive) and the GI50 (CAKI-1) was > 100 µM (inactive). For the same compound, the GI50 (HL-60) was > 100 µM (inactive), the GI50 (IGROV-1) was > 100 µM (inactive) and the GI50 (UACC-62) was > 100 µM (inactive). The GI50 (SF-268) was > 100 µM (inactive), the GI50 (COLO 205) was > 100 µM (inactive) and the GI50 (SK-MEL-2) was > 100 µM (inactive). For the same compound, the GI50 (RXF 631) was > 100 µM (inactive), the GI50 (K562) was > 100 µM (inactive) and the GI50 (HCC 2998) was > 100 µM (inactive). For the same compound, the GI50 (SK-MEL-28) was > 100 µM (inactive), the GI50 (HOP-92) was > 100 µM (inactive) and the GI50 (M14) was > 100 µM (inactive). For the same compound, the GI50 (NCI-H23) was > 100 µM (inactive), the GI50 (SNB-78) was > 100 µM (inactive) and the GI50 (Malme-3M) was > 100 µM (inactive). The GI50 (A498) was > 100 µM (inactive), the GI50 (OVCAR-4) was > 100 µM (inactive) and the GI50 (DMS-114) was > 100 µM (inactive). For the same compound, the GI50 (XF498) was > 100 µM (inactive), the GI50 (RPMI-8226) was > 100 µM (inactive) and the GI50 (SR) was > 100 µM (inactive). The GI50 (CCRF-CEM) was > 100 µM (inactive), the GI50 (SK-OV-3) was > 100 µM (inactive) and the GI50 (SNB-75) was > 100 µM (inactive). For the same compound, the GI50 (MOLT-4) was > 100 µM (inactive), the GI50 (M19-MEL) was > 100 µM (inactive) and the GI50 (HCT-116) was > 100 µM (inactive). The GI50 (LXFL 529) was > 100 µM (inactive), the GI50 (NCI-H522) was > 100 µM (inactive) and the GI50 (UO-31) was > 100 µM (inactive). For the same compound, the GI50 (DLD-1) was > 100 µM (inactive), the GI50 (SN12C) was > 100 µM (inactive) and the GI50 (HOP-62) was > 100 µM (inactive). The GI50 (NCI-H226) was > 100 µM (inactive), the GI50 (SF-539) was > 100 µM (inactive) and the GI50 (DMS-273) was > 100 µM (inactive).
